# Laboratory results reported in ChEMBL document CHEMBL5360646, “Optimization of M3 Antagonist-PDE4 Inhibitor (MAPI) Dual Pharmacology Molecules for the Treatment of COPD” (J Med Chem, 2023).
# Experiments:
# [1] = biological target: 3',5'-cyclic-AMP phosphodiesterase 4B (Homo sapiens, UniProt Q07343); assay: Inhibition of human recombinant PDE4B2 expressed in baculovirus expression system using cAMP as substrate incubated for 2 hrs by HTRF assay
# [2] = biological target: Muscarinic acetylcholine receptor M3 (Homo sapiens, UniProt P20309); assay: Displacement of [3H]N-methylscopolamine chloride from human muscarinic M3 receptor incubated for 2 hrs by radioligand binding assay
# Muscarinic acetylcholine receptor M3, sequence (P20309 whole entry): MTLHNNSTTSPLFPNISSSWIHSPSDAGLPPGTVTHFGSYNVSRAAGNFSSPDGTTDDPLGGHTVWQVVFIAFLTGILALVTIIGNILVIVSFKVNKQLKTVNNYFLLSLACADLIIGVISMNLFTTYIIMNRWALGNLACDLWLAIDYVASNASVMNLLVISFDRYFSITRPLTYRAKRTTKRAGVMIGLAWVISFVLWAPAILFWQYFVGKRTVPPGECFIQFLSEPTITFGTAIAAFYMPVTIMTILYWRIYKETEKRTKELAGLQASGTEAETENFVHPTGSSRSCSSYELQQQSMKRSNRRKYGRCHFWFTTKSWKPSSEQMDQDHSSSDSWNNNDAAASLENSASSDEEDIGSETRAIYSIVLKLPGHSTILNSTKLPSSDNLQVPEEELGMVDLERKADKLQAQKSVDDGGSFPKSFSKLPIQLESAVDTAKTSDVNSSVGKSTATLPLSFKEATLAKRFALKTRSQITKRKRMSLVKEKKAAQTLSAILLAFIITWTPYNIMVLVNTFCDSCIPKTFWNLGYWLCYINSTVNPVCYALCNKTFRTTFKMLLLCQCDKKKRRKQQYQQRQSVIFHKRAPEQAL
# [3] = Ratio of ED50 for Anti-inflammatory activity against OVA-sensitized Brown-Norway rat airway inflammation model to ED50 for Anti-bronchospastic activity in carbachol-induced bronchospasm Sprague-Dawley rat model; type: functional
# Trachea = assay: Bronchoconstriction activity in Sprague-Dawley rat trachea assessed as inhibition of carbachol-induced tracheal contraction; type: functional, tissue-based; conditions: for IC50: Rattus norvegicus, Sprague-Dawley, Trachea
# [4] = Antiinflammatory activity against LPS-stimulated human PBMC cells assessed reduction in TNFalpha level incubated for 18 hrs by ELISA analysis; type: functional, cell-based; conditions: for IC50: Homo sapiens, PBMC, 18 h; for pIC50: pbmc
# Rattus norvegicus [5] = assay: Anti-bronchospastic activity in carbachol-induced bronchospasm Sprague-Dawley rat model assessed as inhibition of carbachol-induced bronchoconstriction at 10 nmol/kg, IT(Intratracheal) administered 16 hr prior to carbachol challenge; type: functional; design: scale not given: the % may be the effect or the level left
# Rattus norvegicus [6] = assay: Anti-bronchospastic activity in carbachol-induced bronchospasm Sprague-Dawley rat model assessed as inhibition of carbachol-induced bronchoconstriction administered IT(Intratracheal) for 1 hr prior to carbachol challenge; type: functional
# Rattus norvegicus [7] = assay: Anti-bronchospastic activity in carbachol-induced bronchospasm Sprague-Dawley rat model assessed as inhibition of carbachol-induced bronchoconstriction at 10 nmol/kg, IT(Intratracheal) administered 1 hr prior to carbachol challenge; type: functional; design: scale not given: the % may be the effect or the level left
# Rattus norvegicus [8] = assay: Anti-inflammatory activity against OVA-sensitized Brown-Norway rat airway inflammation model assessed as inhibition of OVA-induced eosinophil influx administered IT(Intratracheal) 2 hrs prior to OVA challenge; type: functional
# [9] = Metabolic stability in rat liver microsomes assessed as intrinsic clerance at 1 uM and measured upto 60 mins by HPLC-MS/MS analysis; type: ADME, Microsome; conditions: microsomes, 1 h, 1 µM
# [10] = Metabolic stability in rat plasma assessed as half life at 5 uM and measured upto 180 mins by HPLC-MS/MS analysis; type: ADME, cell-free; conditions: for t1/2: 3 h, 5 µM
# [11] = Metabolic stability in human liver microsomes assessed as intrinsic clerance at 1 uM and measured upto 60 mins by HPLC-MS/MS analysis; type: ADME, Microsome; conditions: for microsomal CLint at 1 µM: liver microsomes, read-out: CLH; for CLH: microsomes, 1 h, 1 µM
# [12] = Metabolic stability in rat lung S9 fraction assessed as half life at 1 uM and measured upto 60 mins in presence of NADPH by LC-MS/MS analysis; type: ADME, subcellular; conditions: for t1/2: s9, 1 h, 1 µM, 1 h
# [13] = Metabolic stability in human lung S9 fraction assessed as half life at 1 uM and measured upto 60 mins in presence of NADPH by LC-MS/MS analysis; type: ADME, subcellular; conditions: for half-life at 1 µM: lung S9 fraction; for t1/2: s9, 1 h, 1 µM, 1 h
# [14] = Metabolic stability in human plasma assessed as half life at 5 uM and measured upto 180 mins by HPLC-MS/MS analysis; type: ADME, cell-free
# Rattus norvegicus [15] = assay: Anti-bronchospastic activity in carbachol-induced bronchospasm Sprague-Dawley rat model assessed as inhibition of carbachol-induced bronchoconstriction at 30 nmol/kg, IT(Intratracheal) administered 16 hr prior to carbachol challenge; type: functional; design: scale not given: the % may be the effect or the level left
# Rattus norvegicus [16] = assay: Anti-bronchospastic activity in carbachol-induced bronchospasm Sprague-Dawley rat model assessed as inhibition of carbachol-induced bronchoconstriction at 30 nmol/kg, IT(Intratracheal) administered 1 hr prior to carbachol challenge; type: functional; design: scale not given: the % may be the effect or the level left
# [17] = Rattus norvegicus, Sprague-Dawley, read-out: ED50
# 3',5'-cyclic-AMP phosphodiesterase 4B, sequence (Q07343 whole entry): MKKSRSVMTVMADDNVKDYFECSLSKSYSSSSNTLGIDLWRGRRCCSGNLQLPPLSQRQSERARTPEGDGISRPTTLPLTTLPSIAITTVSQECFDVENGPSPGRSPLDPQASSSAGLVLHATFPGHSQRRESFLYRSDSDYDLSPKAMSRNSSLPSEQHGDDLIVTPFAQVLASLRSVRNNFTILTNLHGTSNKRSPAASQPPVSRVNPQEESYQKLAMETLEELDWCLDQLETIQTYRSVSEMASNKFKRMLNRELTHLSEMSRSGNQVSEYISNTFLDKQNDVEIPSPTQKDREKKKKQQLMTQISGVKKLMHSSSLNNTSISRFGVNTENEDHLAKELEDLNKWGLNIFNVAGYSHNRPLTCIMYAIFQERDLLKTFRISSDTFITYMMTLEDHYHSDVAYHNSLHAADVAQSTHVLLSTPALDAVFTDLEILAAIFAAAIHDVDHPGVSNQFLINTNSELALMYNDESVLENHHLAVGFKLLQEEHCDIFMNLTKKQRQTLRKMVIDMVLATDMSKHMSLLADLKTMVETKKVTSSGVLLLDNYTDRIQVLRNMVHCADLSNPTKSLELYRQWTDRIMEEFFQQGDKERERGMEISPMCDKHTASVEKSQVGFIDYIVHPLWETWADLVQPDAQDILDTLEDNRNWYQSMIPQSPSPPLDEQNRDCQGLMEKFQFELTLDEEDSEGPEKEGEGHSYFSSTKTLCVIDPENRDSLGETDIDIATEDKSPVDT
smiles,measurement,setting,value
CS(=O)(=O)N1CCC[C@H]1C(=O)O[C@@H](Cc1c(Cl)c[n+]([O-])cc1Cl)c1ccc(OC(F)F)c(OCC2CC2)c1,IC50,[1],0.501 nM
CN(C)C(=O)c1cccc(S(=O)(=O)N2CCC[C@H]2C(=O)O[C@@H](Cc2c(Cl)c[n+]([O-])cc2Cl)c2ccc(OC(F)F)c(OCC3CC3)c2)c1,IC50,[1],0.0398 nM
COc1cc(C(=O)O[C@@H](Cc2c(Cl)c[n+]([O-])cc2Cl)c2ccc(OC)c(OC)c2)ccc1CNC(C(=O)O[C@H]1CN2CCC1CC2)c1ccccc1 (some centres undefined),IC50,[1],5.01 nM
same,Ki,[2],0.631 nM
COc1ccc([C@H](Cc2c(Cl)c[n+]([O-])cc2Cl)OC(=O)c2ccc(CNC(C(=O)O[C@H]3CN4CCC3CC4)c3ccccc3)cc2)cc1OC (some centres undefined),IC50,[1],2.51 nM
same,Ki,[2],0.251 nM
CCOc1cc([C@H](Cc2c(Cl)c[n+]([O-])cc2Cl)OC(=O)c2ccc(CN[C@](CO)(C(=O)O[C@H]3CN4CCC3CC4)c3ccccc3)s2)ccc1OC,Ratio ED50,[3],7.7
same,IC50,[1],0.631 nM
same,IC50,Trachea,3.98 nM
same,IC50,[4],0.398 nM
same,Ki,[2],0.251 nM
same,Activity,Rattus norvegicus [5],82%
same,ED50,Rattus norvegicus [6]; [17],0.0031 µmol/kg
same,Activity,Rattus norvegicus [7],89%
same,ED50,Rattus norvegicus [8],0.024 µmol/kg
CCOc1cc([C@H](Cc2c(Cl)cncc2Cl)OC(=O)c2ccc(CN[C@@](CO)(C(=O)O[C@H]3CN4CCC3CC4)c3ccccc3)s2)ccc1OC,IC50,[1],7.94 nM
same,Ki,[2],3.16 nM
CCOc1cc([C@@H](Cc2c(Cl)c[n+]([O-])cc2Cl)OC(=O)c2ccc(CN[C@@](CO)(C(=O)O[C@H]3CN4CCC3CC4)c3ccccc3)s2)ccc1OC,IC50,[1],6.31 nM
same,Ki,[2],25.1 nM
CCOc1cc(C(=O)O[C@@H](Cc2c(Cl)c[n+]([O-])cc2Cl)c2ccc(OC)c(OC)c2)ccc1CNC(C(=O)O[C@H]1CN2CCC1CC2)c1ccccc1 (some centres undefined),IC50,[1],7.94 nM
same,Ki,[2],1 nM
COc1ccc([C@H](Cc2c(Cl)c[n+]([O-])cc2Cl)OC(=O)c2ccc(CNC(C(=O)O[C@H]3CN4CCC3CC4)c3ccccc3)c(OCC3CC3)c2)cc1OC (some centres undefined),IC50,[1],1 nM
same,Ki,[2],2.51 nM
COc1ccc([C@H](Cc2c(Cl)c[n+]([O-])cc2Cl)OC(=O)c2ccc(CNC(C)(C(=O)O[C@H]3CN4CCC3CC4)c3ccccc3)s2)cc1OC (stereo in doubt; 1f),CLH,[9],481 µL/min/mg
same,IC50,[1],3.98 nM
same,IC50,Trachea,2.51 nM
same,IC50,[4],15.8 nM
same,half-life at 5 µM,[10],86 min
same,Ki,[2],0.2 nM
same,microsomal CLint at 1 µM,[11],470 µL/min/mg
same,t1/2,[12],280 min
same,half-life at 1 µM,[13],110 min
same,half-life at 5 µM,[14],174 min
COc1ccc([C@H](Cc2c(Cl)c[n+]([O-])cc2Cl)OC(=O)c2ccc(CNC(C)(C(=O)O[C@H]3CN4CCC3CC4)c3ccccc3)s2)cc1OC (stereo in doubt; 1s),CLH,[9],48 µL/min/mg
same,IC50,[1],1.26 nM
same,pIC50,Trachea,8.5
same,pIC50,[4],7.9
same,t1/2,[10],59 min
same,Ki,[2],0.158 nM
same,CLH,[11],481 µL/min/mg
same,t1/2,[12],109 min
same,t1/2,[13],125 min
same,t1/2,"[14]; 3 h, 5 µM",191 min
CCC(NCc1ccc(C(=O)O[C@@H](Cc2c(Cl)c[n+]([O-])cc2Cl)c2ccc(OC)c(OC)c2)s1)(C(=O)O[C@H]1CN2CCC1CC2)c1ccccc1 (stereo in doubt; 2f),IC50,[1],2.51 nM
same,IC50,Trachea,25.1 nM
same,IC50,[4],2.51 nM
same,Ki,[2],0.316 nM
CCC(NCc1ccc(C(=O)O[C@@H](Cc2c(Cl)c[n+]([O-])cc2Cl)c2ccc(OC)c(OC)c2)s1)(C(=O)O[C@H]1CN2CCC1CC2)c1ccccc1 (stereo in doubt; 2s),IC50,[1],3.16 nM
same,Ki,[2],3.98 nM
COc1ccc([C@H](Cc2c(Cl)c[n+]([O-])cc2Cl)OC(=O)c2ccc(CNC(CO)(C(=O)O[C@H]3CN4CCC3CC4)c3ccccc3)s2)cc1OC (stereo in doubt; 3f),CLH,[9],32 µL/min/mg
same,IC50,[1],0.631 nM
same,pIC50,Trachea,7.4
same,IC50,[4],0.501 nM
same,half-life at 5 µM,[10],126 min
same,Ki,[2],0.631 nM
same,ED50,Rattus norvegicus [6],0.0029 µmol/kg
same,microsomal CLint at 1 µM,[11],331 µL/min/mg
same,Activity,Rattus norvegicus [15],28%
same,half-life at 1 µM,[12]; lung S9 fraction,82 min
same,half-life at 1 µM,[13],79 min
same,Activity,Rattus norvegicus [16],88%
same,half-life at 5 µM,[14],> 240 min
COc1ccc([C@H](Cc2c(Cl)c[n+]([O-])cc2Cl)OC(=O)c2ccc(CNC(CO)(C(=O)O[C@H]3CN4CCC3CC4)c3ccccc3)s2)cc1OC (stereo in doubt; 3s),CLH,[9],189 µL/min/mg
same,Ratio ED50,[3],20
same,IC50,[1],0.501 nM
same,pIC50,Trachea,8.4
same,pIC50,[4],9.2
same,t1/2,[10],117 min
same,Ki,[2],0.2 nM
same,Activity,Rattus norvegicus [5],82%
same,ED50,Rattus norvegicus [6],0.0008 µmol/kg
same,CLH,[11],196 µL/min/mg
same,Activity,Rattus norvegicus [7],81%
same,ED50,Rattus norvegicus [8],0.016 µmol/kg
same,t1/2,[12],83 min
same,t1/2,[13],78 min
COCC(NCc1ccc(C(=O)O[C@@H](Cc2c(Cl)c[n+]([O-])cc2Cl)c2ccc(OC)c(OC)c2)s1)(C(=O)O[C@H]1CN2CCC1CC2)c1ccccc1 (stereo in doubt; 4f),IC50,[1],1 nM
same,Ki,[2],3.16 nM
COCC(NCc1ccc(C(=O)O[C@@H](Cc2c(Cl)c[n+]([O-])cc2Cl)c2ccc(OC)c(OC)c2)s1)(C(=O)O[C@H]1CN2CCC1CC2)c1ccccc1 (stereo in doubt; 4s),IC50,[1],1.58 nM
same,Ki,[2],5.01 nM
COc1ccc([C@H](Cc2c(Cl)c[n+]([O-])cc2Cl)OC(=O)c2ccc(CNC(CO)(C(=O)O[C@H]3CN4CCC3CC4)c3ccccc3)c(OCC3CC3)c2)cc1OC (stereo in doubt; 9f),IC50,[1],0.501 nM
same,Ki,[2],31.6 nM
COc1ccc([C@H](Cc2c(Cl)c[n+]([O-])cc2Cl)OC(=O)c2ccc(CNC(CO)(C(=O)O[C@H]3CN4CCC3CC4)c3ccccc3)c(OCC3CC3)c2)cc1OC (stereo in doubt; 9s),IC50,[1],0.794 nM
same,Ki,[2],> 50.1 nM
COc1ccc([C@H](Cc2c(Cl)c[n+]([O-])cc2Cl)OC(=O)c2ccc(CNC(CO)(C(=O)O[C@H]3CN4CCC3CC4)c3ccccc3)s2)cc1OCC1CC1 (stereo in doubt; 11f),IC50,[1],0.794 nM
same,pIC50,Trachea,7
same,IC50,[4],1.58 nM
same,Ki,[2],0.398 nM
same,ED50,Rattus norvegicus [6]; [17],0.0079 µmol/kg
same,Activity,Rattus norvegicus [16],80%
COc1ccc([C@H](Cc2c(Cl)c[n+]([O-])cc2Cl)OC(=O)c2ccc(CNC(CO)(C(=O)O[C@H]3CN4CCC3CC4)c3ccccc3)s2)cc1OCC1CC1 (stereo in doubt; 11s),IC50,[1],1.26 nM
same,pIC50,Trachea,7.8
same,pIC50,[4],8.5
same,Ki,[2],0.251 nM
